In patent US20040156869A1, “2-substituted quinazolin-4-ylamine analogues” (Neurogen Corporation, priority 2002, published 2004):

What follows are molecules tested against human capsaicin receptor (VR1) (Homo sapiens, UniProt Q8NER1) (assay: Capsaicin receptor binding assay ([3H]RTX competition, VR1-transfected HEK293 membranes)).
Chain of human capsaicin receptor (VR1) (Q8NER1 whole entry): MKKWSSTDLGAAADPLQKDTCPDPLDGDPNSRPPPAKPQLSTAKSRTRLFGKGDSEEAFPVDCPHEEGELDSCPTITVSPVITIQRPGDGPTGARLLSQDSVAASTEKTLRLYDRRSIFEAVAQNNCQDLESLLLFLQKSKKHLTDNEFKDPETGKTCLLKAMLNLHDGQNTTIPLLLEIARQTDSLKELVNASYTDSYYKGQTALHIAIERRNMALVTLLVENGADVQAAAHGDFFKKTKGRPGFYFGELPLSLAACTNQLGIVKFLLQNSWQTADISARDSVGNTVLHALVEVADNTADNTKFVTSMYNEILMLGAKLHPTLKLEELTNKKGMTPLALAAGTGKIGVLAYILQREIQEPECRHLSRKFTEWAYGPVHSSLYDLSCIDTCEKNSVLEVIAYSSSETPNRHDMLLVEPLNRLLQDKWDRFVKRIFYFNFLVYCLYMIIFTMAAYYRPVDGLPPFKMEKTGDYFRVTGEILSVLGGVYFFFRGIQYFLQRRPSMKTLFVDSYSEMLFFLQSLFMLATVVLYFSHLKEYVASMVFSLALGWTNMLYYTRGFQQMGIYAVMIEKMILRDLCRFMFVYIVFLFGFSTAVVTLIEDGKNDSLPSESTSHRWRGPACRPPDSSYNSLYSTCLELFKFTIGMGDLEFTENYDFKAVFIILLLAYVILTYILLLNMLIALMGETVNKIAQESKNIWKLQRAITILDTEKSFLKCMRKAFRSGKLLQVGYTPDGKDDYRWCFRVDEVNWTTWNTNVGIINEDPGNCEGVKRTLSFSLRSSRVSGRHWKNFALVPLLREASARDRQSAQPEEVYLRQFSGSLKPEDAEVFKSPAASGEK

SMILES | Ki
Cc1cccnc1-c1ccc2c(Nc3ccc(C(C)(C)C)cc3)nc(CN3C[C@@H](C)O[C@@H](C)C3)nc2c1 [Compound 635, (4-tert-Butyl-phenyl)-[2-(2,6-dimethyl-morpholin-4-ylmethyl)-7-(3-methyl-pyridin-2-yl)-quinazolin-4-yl]-amine (cis)] | < 1 µM
CC1CCCN(Cc2nc(Nc3ccc(C(F)(F)F)cc3)c3ncc(-c4ncccc4C(F)(F)F)cc3n2)C1 (centres unmarked) [Compound 669, [2-(3-Methyl-piperidin-1-ylmethyl)-7-(3-trifluoromethyl-pyridin-2-yl)-pyrido[3,2-d]pyrimidin-4-yl]-(4-trifluoromethyl-phenyl)-amine] | < 1 µM
COCc1nc(Nc2ccc(S(=O)(=O)N3CCOCC3)cc2)c2ccc(-c3ncccc3C(F)(F)F)nc2n1 [Compound 114, [2-Methoxymethyl-7-(3-trifluoromethyl-pyridin-2-yl)-pyrido[2,3-d]pyrimidin-4-yl]-[4-(morpholine-4-sulfonyl)-phenyl]-amine] | < 1 µM
COCc1cc(Nc2ccc(C(C)(C)C)cc2)c2ccc(-c3ncccc3C(F)(F)F)nc2n1 [Compound 298, (4-tert-Butyl-phenyl)-[2-methoxymethyl-7-(3-trifluoromethyl-pyridin-2-yl)-[1,8]naphthyridin-4-yl]-amine] | < 1 µM
CC(C)N(C)Cc1nc(Nc2ccc(C(F)(F)F)cc2)c2ccc(-c3ncccc3C(F)(F)F)cc2n1 [Compound 338] | < 1 µM
C[C@@H]1CN(Cc2nc(Nc3ccc(C(C)(C)C)cc3)c3ccc(-c4cccnc4)cc3n2)C[C@H](C)O1 [Compound 676, (4-tert-Butyl-phenyl)-[2-(2,6-dimethyl-morpholin-4-ylmethyl)-7-pyridin-3-yl-quinazolin-4-yl]-amine (cis)] | < 1 µM
Cc1cccnc1-c1ccc2c(Nc3ccc(C(F)(F)F)cc3)nc(CN3CCCC(C)(C)C3)nc2c1 [Compound 731, [2-(3,3-Dimethyl-piperidin-1-ylmethyl)-7-(3-methyl-pyridin-2-yl)-quinazolin-4-yl]-(4-trifluoromethyl-phenyl)-amine] | < 1 µM
CC(C)(C)NS(=O)(=O)c1ccc(Nc2nc(COCc3ccccc3)nc3cc(-c4ncccc4C(F)(F)F)ccc23)cc1 [Compound 38, 4-[2-Benzyloxymethyl-7-(3-trifluoromethyl-pyridin-2-yl)-quinazolin-4-ylamino]-N-tert-butyl-benzenesulfonamide] | < 1 µM
C=CCN(CC=C)Cc1nc(Nc2ccc(C(F)(F)F)cc2)c2ccc(-c3ncccc3C(F)(F)F)cc2n1 [Compound 333] | < 1 µM
FC(F)(F)c1ccc(Nc2nc(Cn3ccnc3)nc3cc(-c4ncccc4Cl)cnc23)cc1 [Compound 700, [7-(3-Chloro-pyridin-2-yl)-2-imidazol-1-ylmethyl-pyrido[3,2-d]pyrimidin-4-yl]-(4-trifluoromethyl-phenyl)-amine] | < 1 µM
FC(F)(F)c1ccc(Nc2cc(CN3CCCCC3)nc3nc(-c4ncccc4C(F)(F)F)ccc23)cc1 [Compound 799, [2-Piperidin-1-ylmethyl-7-(3-trifluoromethyl-pyridin-2-yl)-[1,8]naphthyridin-4-yl]-(4-trifluoromethyl-phenyl)-amine] | < 1 µM
C[C@@H](OCc1nc(Nc2ccc(C(C)(C)C)cc2)c2ccc(-c3ncccc3C(F)(F)F)cc2n1)C(=O)O [Compound 229, (R)-2-[4-(4-tert-Butyl-phenylamino)-7-(3-trifluoromethyl-pyridin-2-yl)-quinazolin-2-ylmethoxy]-propionic acid (chiral)] | < 1 µM
COC(=O)[C@@H](OCc1nc(Nc2ccc(C(C)(C)C)cc2)c2ccc(-c3ncccc3C(F)(F)F)cc2n1)C(C)C [Compound 228, 2-[4-(4-tert-Butyl-phenylamino)-7-(3-trifluoromethyl-pyridin-2-yl)-quinazolin-2-ylmethoxy]-3-methyl-butyric acid methyl ester (S)] | < 1 µM
Cc1ccccc1CN(C)CCc1nc(Nc2ccc(C(F)(F)F)cc2)c2ccc(-c3ncccc3C(F)(F)F)cc2n1 [Compound 395, [2-{2-[Methyl-(2-methyl-benzyl)-amino]-ethyl}-7-(3-trifluoromethyl-pyridin-2-yl)-quinazolin-4-yl]-(4-trifluoromethyl-phenyl)-amine] | < 1 µM
C=CCN(CC=C)C(=O)c1nc(Nc2ccc(C(F)(F)F)cc2)c2ccc(-c3ncccc3C(F)(F)F)nc2n1 [Compound 465, 4-(4-Trifluoromethyl-phenylamino)-7-(3-trifluoromethyl-pyridin-2-yl)-pyrido[2,3-d]pyrimidine-2-carboxylic acid diallylamide] | < 1 µM
FC(F)(F)c1ccc(Nc2nc(CCN3CCCC4CCCCC43)nc3cc(-c4ncccc4C(F)(F)F)ccc23)cc1 (centres unmarked) [Compound 408, [2-(Octahydro-quinolin-1-ylethyl)-7-(3-trifluoromethyl-pyridin-2-yl)-quinazolin-4-yl]-(4-trifluoromethyl-phenyl)-amine] | < 1 µM

SMILES | Ki
CN1CCCC1CCNC(=O)c1nc(Nc2ccc(C(F)(F)F)cc2)c2ccc(-c3ncccc3C(F)(F)F)nc2n1 (centres unmarked) [Compound 440, 4-(4-Trifluoromethyl-phenylamino)-7-(3-trifluoromethyl-pyridin-2-yl)-pyrido[2,3-d]pyrimidine-2-carboxylic acid [2-(1-methyl-pyrrolidin-2-yl)-ethyl]-amide] | < 1 µM
CC1CCN(Cc2nc(Nc3ccc(C(F)(F)F)nc3)c3ccc(-c4ncccc4C(F)(F)F)cc3n2)CC(C)(C)C1 (centres unmarked) [Compound 363, (6-Trifluoromethyl-pyridin-3-yl)-[7-(3-trifluoromethyl-pyridin-2-yl)-2-(3,3,5-trimethyl-azepan-1-ylmethyl)-quinazolin-4-yl]-amine] | < 1 µM
Cc1cccnc1-c1ccc2c(Nc3ccc(C(F)(F)F)cc3)nc(CN3C[C@@H](C)O[C@@H](C)C3)nc2c1 [Compound 618, [2-(2,6-Dimethyl-morpholin-4-ylmethyl)-7-(3-methyl-pyridin-2-yl)-quinazolin-4-yl]-(4-trifluoromethyl-phenyl)-amine (cis)] | < 1 µM
COCc1nc(Nc2ccc(S(=O)(=O)C(F)(F)F)cc2)c2ccc(-c3ncccc3C(F)(F)F)nc2n1 [Compound 113, [2-Methoxymethyl-7-(3-trifluoromethyl-pyridin-2-yl)-pyrido[2,3-d]pyrimidin-4-yl]-(4-trifluoromethanesulfonyl-phenyl)-amine] | < 1 µM
CCOC(=O)C1CCCN(Cc2nc(Nc3ccc(C(F)(F)F)cc3)c3ccc(-c4ncccc4C(F)(F)F)cc3n2)C1 (centres unmarked) [Compound 501, 1-[4-(4-Trifluoromethyl-phenylamino)-7-(3-trifluoromethyl-pyridin-2-yl)-quinazolin-2-ylmethyl]-piperidine-3-carboxylic acid ethyl ester] | < 1 µM
CC(C)S(=O)(=O)c1ccc(Nc2nc(CN3C[C@@H](C)O[C@@H](C)C3)nc3cc(-c4ncccc4C(F)(F)F)cnc23)cc1 [Compound 595, [2-(2,6-Dimethyl-morpholin-4-ylmethyl)-7-(3-trifluoromethyl-pyridin-2-yl)-pyrido[3,2-d]pyrimidin-4-yl]-[4-(propane-2-sulfonyl)-phenyl]-amine (cis)] | < 1 µM
CCc1ccc(Nc2nc(CN3C[C@H](C)O[C@@H](C)C3)nc3cc(-c4ncccc4Cl)ccc23)cc1 [Compound 651, (S,S)-[7-(3-Chloro-pyridin-2-yl)-2-(2,6-dimethyl-morpholin-4-ylmethyl)-quinazolin-4-yl]-(4-ethyl-phenyl)-amine] | < 1 µM
O=C(c1nc(Nc2ccc(C(F)(F)F)cc2)c2ccc(-c3ncccc3C(F)(F)F)nc2n1)N1CCN(C2CCCCCC2)CC1 [Compound 474, (4-Cycloheptyl-piperazin-1-yl)-[4-(4-trifluoromethyl-phenylamino)-7-(3-trifluoromethyl-pyridin-2-yl)-pyrido[2,3-d]pyrimidin-2-yl]-methanone] | < 1 µM
CCOCc1nc(Nc2ccc(C(C)C)cc2)c2ccc(-c3ncccc3C)cc2n1 [Compound 104, [2-Ethoxymethyl-7-(3-methyl-pyridin-2-yl)-quinazolin-4-yl]-(4-isopropyl-phenyl)-amine] | < 1 µM
COCc1nc(Nc2ccc(C(F)(F)F)c(C)c2)c2ccc(-c3ncccc3C)nc2n1 [Compound 198, [2-Methoxymethyl-7-(3-methyl-pyridin-2-yl)-pyrido[2,3-d]pyrimidin-4-yl]-(3-methyl-4-trifluoromethyl-phenyl)-amine] | < 1 µM
CCCN(C)CCc1nc(Nc2ccc(C(F)(F)F)cc2)c2ccc(-c3ncccc3C(F)(F)F)cc2n1 [Compound 412, [2-[(Propyl-methyl-amino)-ethyl]-7-(3-trifluoromethyl-pyridin-2-yl)-quinazolin-4-yl]-(4-trifluoromethyl-phenyl)-amine] | < 1 µM
O=C(c1nc(Nc2ccc(C(F)(F)F)cc2)c2ccc(-c3ncccc3C(F)(F)F)cc2n1)N1CCCCC1 [Compound 759, Piperidin-1-yl-[4-(4-trifluoromethyl-phenylamino)-7-(3-trifluoromethyl-pyridin-2-yl)-quinazolin-2-yl]I-methanone] | < 1 µM
OCC1CCN(CCCc2nc(Nc3ccc(C(F)(F)F)cc3)c3ccc(-c4ncccc4C(F)(F)F)cc3n2)CC1 [Compound 569, (1-{3-[4-(4-Trifluoromethyl-phenylamino)-7-(3-trifluoromethyl-pyridin-2-yl)-quinazolin-2-yl]-propyl}-piperidin-4-yl)-methanol] | < 1 µM
COC(=O)c1ccc(Nc2nc(COCC(C)C)nc3nc(-c4ncccc4Cl)ccc23)cc1 [Compound 267, 4-[7-(3-Chloro-pyridin-2-yl)-2-isobutoxymethyl-pyrido[2,3-d]pyrimidin-4-ylamino]-benzoic acid methyl ester] | < 1 µM
CCN(CCc1nc(Nc2ccc(C(F)(F)F)cc2)c2ccc(-c3ncccc3C(F)(F)F)cc2n1)C(C)C [Compound 414, [2-[(Isopropyl-ethyl-amino)-ethyl]-7-(3-trifluoromethyl-pyridin-2-yl)-quinazolin-4-yl]-(4-trifluoromethyl-phenyl)-amine] | < 1 µM
CN(C)C(=O)c1nc(Nc2ccc(C(F)(F)F)cc2)c2ccc(-c3ncccc3C(F)(F)F)nc2n1 [Compound 467, 4-(4-Trifluoromethyl-phenylamino)-7-(3-trifluoromethyl-pyridin-2-yl)-pyrido[2,3-d]pyrimidine-2-carboxylic acid dimethylamide] | < 1 µM
